Data as given in patent publication US9340590B2 (priority 2011, dated 2016).
Where two headings read alike, the source gives them in different places. Positions of bridges follow the written chain, without caps; N, C: chain ends. Non-standard residues stand in square brackets, D forms with d. Residues, ends and D or L forms follow the SMILES beside them. 3Pal = N[C@@H](Cc1cccnc1)C(=O)O

Experiments:
Test in all cases: cell-based
hNav1.7 = hNav1.7 (Homo sapiens, UniProt Q15858); type: cell-based
hNav1.5 = hNav1.5 (Homo sapiens, UniProt Q14524); conditions: IonWorks Quattro, read-out: IWQ Use Nav1.5
hNav1.3 = hNav1.3 (Homo sapiens, UniProt Q9NY46); conditions: IonWorks Quattro, read-out: IWQ Use Nav1.3
[1] = IonWorks Quattro, use-dependent block, hNav1.7, read-out: IWQ Use Nav1.7

Sequence of hNav1.7 (Q15858 whole entry, looked up): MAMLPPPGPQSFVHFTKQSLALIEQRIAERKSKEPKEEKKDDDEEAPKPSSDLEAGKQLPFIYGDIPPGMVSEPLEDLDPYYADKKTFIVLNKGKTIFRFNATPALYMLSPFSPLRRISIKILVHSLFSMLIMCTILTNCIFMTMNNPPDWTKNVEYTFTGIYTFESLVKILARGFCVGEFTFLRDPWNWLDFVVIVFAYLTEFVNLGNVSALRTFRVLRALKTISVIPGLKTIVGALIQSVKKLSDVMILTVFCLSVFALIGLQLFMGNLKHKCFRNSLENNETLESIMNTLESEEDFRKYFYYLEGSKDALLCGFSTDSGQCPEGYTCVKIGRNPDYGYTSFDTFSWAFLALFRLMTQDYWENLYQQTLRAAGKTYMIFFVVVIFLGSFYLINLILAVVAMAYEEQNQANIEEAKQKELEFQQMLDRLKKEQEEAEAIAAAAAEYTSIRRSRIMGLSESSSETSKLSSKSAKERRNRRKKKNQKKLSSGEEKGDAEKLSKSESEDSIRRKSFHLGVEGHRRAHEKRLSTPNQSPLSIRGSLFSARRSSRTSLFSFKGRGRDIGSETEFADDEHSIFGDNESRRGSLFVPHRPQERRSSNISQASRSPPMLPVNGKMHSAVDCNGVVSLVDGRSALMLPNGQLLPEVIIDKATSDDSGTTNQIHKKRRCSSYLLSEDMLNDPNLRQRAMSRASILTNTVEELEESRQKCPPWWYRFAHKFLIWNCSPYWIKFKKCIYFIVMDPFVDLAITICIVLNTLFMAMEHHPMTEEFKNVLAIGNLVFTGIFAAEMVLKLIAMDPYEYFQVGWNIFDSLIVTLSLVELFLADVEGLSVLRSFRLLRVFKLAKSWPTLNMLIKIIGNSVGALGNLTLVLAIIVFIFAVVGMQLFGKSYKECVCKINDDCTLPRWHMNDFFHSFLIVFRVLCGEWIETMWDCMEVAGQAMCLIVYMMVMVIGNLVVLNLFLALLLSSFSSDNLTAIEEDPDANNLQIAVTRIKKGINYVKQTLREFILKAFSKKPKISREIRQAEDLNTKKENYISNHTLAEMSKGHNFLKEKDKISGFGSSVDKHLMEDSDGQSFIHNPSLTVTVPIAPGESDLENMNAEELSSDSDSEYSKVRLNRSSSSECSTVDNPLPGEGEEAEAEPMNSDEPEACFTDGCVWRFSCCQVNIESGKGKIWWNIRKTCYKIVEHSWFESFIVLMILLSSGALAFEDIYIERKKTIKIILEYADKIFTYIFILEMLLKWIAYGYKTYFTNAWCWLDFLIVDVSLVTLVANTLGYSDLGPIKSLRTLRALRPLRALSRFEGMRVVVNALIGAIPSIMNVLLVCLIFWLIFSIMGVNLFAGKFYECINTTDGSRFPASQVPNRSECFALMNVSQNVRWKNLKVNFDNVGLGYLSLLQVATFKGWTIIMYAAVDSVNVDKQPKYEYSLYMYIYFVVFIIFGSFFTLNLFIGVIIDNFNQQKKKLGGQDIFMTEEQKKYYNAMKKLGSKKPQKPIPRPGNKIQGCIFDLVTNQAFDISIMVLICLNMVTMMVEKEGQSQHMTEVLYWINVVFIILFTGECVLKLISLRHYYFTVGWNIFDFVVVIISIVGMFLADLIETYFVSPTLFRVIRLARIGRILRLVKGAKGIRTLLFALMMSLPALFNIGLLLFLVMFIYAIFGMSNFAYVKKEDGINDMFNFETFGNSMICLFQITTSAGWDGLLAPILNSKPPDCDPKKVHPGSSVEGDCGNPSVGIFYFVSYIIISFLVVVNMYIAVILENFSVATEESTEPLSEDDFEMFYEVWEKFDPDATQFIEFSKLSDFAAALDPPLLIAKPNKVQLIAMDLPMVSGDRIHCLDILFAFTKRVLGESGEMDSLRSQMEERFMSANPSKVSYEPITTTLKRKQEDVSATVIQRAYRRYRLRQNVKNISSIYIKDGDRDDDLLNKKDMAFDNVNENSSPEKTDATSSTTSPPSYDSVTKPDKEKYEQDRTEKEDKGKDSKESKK
Sequence of hNav1.5 (Q14524 whole entry, looked up): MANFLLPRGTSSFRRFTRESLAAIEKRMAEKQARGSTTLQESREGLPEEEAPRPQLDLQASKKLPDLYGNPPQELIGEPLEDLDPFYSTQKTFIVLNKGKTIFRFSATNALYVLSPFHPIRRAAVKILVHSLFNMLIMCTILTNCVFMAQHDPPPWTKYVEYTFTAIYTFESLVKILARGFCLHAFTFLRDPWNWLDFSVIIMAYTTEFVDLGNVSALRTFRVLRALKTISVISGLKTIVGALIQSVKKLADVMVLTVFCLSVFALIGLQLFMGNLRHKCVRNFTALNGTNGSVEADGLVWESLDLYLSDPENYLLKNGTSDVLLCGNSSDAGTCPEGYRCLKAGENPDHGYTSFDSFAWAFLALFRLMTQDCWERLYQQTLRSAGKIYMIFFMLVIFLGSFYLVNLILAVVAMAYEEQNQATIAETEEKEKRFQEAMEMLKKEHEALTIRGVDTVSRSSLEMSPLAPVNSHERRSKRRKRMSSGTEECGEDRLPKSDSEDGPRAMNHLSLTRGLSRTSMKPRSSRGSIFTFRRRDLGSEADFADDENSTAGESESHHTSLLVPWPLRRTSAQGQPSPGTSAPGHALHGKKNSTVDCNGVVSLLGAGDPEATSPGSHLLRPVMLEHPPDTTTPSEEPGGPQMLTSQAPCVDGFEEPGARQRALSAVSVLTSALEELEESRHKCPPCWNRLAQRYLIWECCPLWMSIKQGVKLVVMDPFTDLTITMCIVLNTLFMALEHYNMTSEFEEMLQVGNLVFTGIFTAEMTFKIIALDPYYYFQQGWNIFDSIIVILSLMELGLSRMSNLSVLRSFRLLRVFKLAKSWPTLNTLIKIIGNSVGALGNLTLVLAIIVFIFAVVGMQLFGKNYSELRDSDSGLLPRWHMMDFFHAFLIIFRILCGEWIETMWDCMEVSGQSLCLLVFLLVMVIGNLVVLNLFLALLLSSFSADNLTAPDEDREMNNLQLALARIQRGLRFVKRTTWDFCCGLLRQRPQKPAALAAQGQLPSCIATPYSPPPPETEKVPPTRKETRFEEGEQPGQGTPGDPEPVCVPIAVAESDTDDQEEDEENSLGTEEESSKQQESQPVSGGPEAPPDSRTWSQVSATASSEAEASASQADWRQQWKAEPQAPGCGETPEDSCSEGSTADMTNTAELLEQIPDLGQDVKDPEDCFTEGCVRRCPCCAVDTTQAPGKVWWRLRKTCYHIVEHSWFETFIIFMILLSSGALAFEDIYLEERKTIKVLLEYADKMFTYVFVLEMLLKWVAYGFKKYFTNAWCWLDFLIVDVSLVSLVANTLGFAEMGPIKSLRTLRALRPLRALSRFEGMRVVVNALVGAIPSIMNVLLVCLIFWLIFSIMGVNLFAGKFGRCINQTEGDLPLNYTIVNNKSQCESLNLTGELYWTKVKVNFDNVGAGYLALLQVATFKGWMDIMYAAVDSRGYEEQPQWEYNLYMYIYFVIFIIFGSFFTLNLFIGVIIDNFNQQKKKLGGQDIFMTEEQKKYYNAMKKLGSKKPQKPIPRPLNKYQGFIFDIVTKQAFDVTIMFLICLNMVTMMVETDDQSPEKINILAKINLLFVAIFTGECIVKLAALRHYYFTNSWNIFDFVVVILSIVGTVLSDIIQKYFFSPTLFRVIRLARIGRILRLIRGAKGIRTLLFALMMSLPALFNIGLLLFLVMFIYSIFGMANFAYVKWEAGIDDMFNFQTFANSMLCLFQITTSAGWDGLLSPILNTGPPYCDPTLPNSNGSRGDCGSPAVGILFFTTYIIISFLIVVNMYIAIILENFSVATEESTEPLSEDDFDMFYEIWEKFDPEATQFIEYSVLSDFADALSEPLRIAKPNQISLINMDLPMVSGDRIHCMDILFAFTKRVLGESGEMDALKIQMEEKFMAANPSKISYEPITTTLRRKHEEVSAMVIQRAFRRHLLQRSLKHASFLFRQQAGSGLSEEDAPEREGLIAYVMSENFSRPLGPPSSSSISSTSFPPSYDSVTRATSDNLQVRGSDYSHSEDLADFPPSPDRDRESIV

SMILES	IC50 (hNav1.7; [1]) [nM]	IC50 (hNav1.5; use-dependent block, hNav1.5) [nM]	IC50 (hNav1.3; use-dependent block, hNav1.3) [nM]	also measured
CC[C@H](C)[C@@H]1NC(=O)[C@@H]2CSSC[C@@H]3NC(=O)[C@H](C(C)C)NC(=O)[C@H](CC(C)C)NC(=O)[C@H](CC(N)=O)NC(=O)[C@@H]4CCCN4C(=O)[C@H](CCCNC(=N)N)NC(=O)[C@H](CSSC[C@H](NC(=O)[C@@H](N)CC(=O)O)C(=O)N[C@@H](CC(C)C)C(=O)NCC(=O)N[C@@H](C)C(=O)N[C@@H](CCSC)C(=O)N[C@@H](CCCNC(=N)N)C(=O)N[C@@H](CCCCN)C(=O)N2)NC(=O)[C@H](CSSC[C@@H](C(=O)N[C@@H](CCCCN)C(=O)N[C@@H](Cc2ccc(O)cc2)C(=O)N[C@H](C(=O)N[C@@H](Cc2ccccc2)C(N)=O)C(C)C)NC(=O)[C@H](Cc2c[nH]c4ccccc24)NC(=O)[C@H](Cc2cccnc2)NC(=O)[C@H](Cc2c[nH]cn2)NC(=O)[C@H]([C@@H](C)O)NC(=O)[C@H](CCCNC(=N)N)NC(=O)[C@H](CO)NC3=O)NC(=O)[C@H](CCCCN)NC(=O)[C@H](CC(=O)O)NC(=O)[C@H](CC(N)=O)NC(=O)[C@H](CC(=O)O)NC(=O)[C@@H]2CCCN2C1=O [compound 740] (H-DCLGAMRKCIPDNDKCCRPNLVCSRTH[3Pal]WCKYVF-NH2; disulfide 2-17, 9-23, 16-30)	1500	31100	> 5000	–
CC[C@H](C)[C@@H]1NC(=O)[C@@H]2CSSC[C@@H]3NC(=O)[C@H](C(C)C)NC(=O)[C@H](CC(C)C)NC(=O)[C@H](CC(N)=O)NC(=O)[C@@H]4CCCN4C(=O)[C@H](CCCNC(=N)N)NC(=O)[C@H](CSSC[C@H](NC(=O)[C@@H](N)CC(=O)O)C(=O)N[C@@H](CC(C)C)C(=O)NCC(=O)N[C@@H](Cc4ccccc4)C(=O)N[C@@H](CCSC)C(=O)N[C@@H](CCCNC(=N)N)C(=O)N[C@@H](CCCCN)C(=O)N2)NC(=O)[C@H](CSSC[C@@H](C(=O)N[C@@H](CCCCN)C(=O)N[C@@H](Cc2ccc(O)cc2)C(=O)N[C@H](C(=O)N[C@@H](Cc2ccccc2)C(N)=O)C(C)C)NC(=O)[C@H](Cc2c[nH]c4ccccc24)NC(=O)[C@H](CCCCN)NC(=O)[C@H](Cc2c[nH]cn2)NC(=O)[C@H](Cc2ccccc2)NC(=O)[C@H](CCCNC(=N)N)NC(=O)[C@H](CO)NC3=O)NC(=O)[C@H](CCCCN)NC(=O)[C@H](CC(=O)O)NC(=O)[C@H](CC(N)=O)NC(=O)[C@H](CC(=O)O)NC(=O)[C@@H]2CCCN2C1=O [compound 341] (H-DCLGFMRKCIPDNDKCCRPNLVCSRFHKWCKYVF-NH2; disulfide 2-17, 9-23, 16-30)	–	–	–	IC50 (hNav1.7; Table 22, IonWorks Quattro, use, […], read-out: IWQ Use Nav1.7): 80 nM; IC50 (hNav1.5; Table 22, use, […]): 5880 nM; IC50 (hNav1.3; Table 22, use, […]): 100 nM
CC[C@H](C)[C@@H]1NC(=O)[C@@H]2CSSC[C@@H]3NC(=O)[C@H](C(C)C)NC(=O)[C@H](CC(C)C)NC(=O)[C@H](CC(N)=O)NC(=O)CNC(=O)[C@H](CCCNC(=N)N)NC(=O)[C@H](CSSC[C@H](NC(=O)[C@@H](N)CC(=O)O)C(=O)N[C@@H](CC(C)C)C(=O)NCC(=O)N[C@@H](Cc4ccccc4)C(=O)N[C@@H](CCSC)C(=O)N[C@@H](CCCNC(=N)N)C(=O)N[C@@H](CCCCN)C(=O)N2)NC(=O)[C@H](CSSC[C@@H](C(=O)N[C@@H](CCCCN)C(=O)N[C@@H](Cc2ccc(O)cc2)C(=O)N[C@H](C(=O)N[C@@H](Cc2ccccc2)C(N)=O)C(C)C)NC(=O)[C@H](Cc2c[nH]c4ccccc24)NC(=O)[C@H](CCCCN)NC(=O)[C@H](Cc2c[nH]cn2)NC(=O)[C@H]([C@@H](C)O)NC(=O)[C@H](CCCNC(=N)N)NC(=O)[C@H](CO)NC3=O)NC(=O)[C@H](CCCCN)NC(=O)[C@H](CC(=O)O)NC(=O)[C@H](CC(N)=O)NC(=O)[C@H](CC(=O)O)NC(=O)[C@@H]2CCCN2C1=O [compound 126] (H-DCLGFMRKCIPDNDKCCRGNLVCSRTHKWCKYVF-NH2; disulfide 2-17, 9-23, 16-30)	–	–	–	IC50 (hNav1.7; IonWorks Quattro, Use, read-out: IWQ Use Nav1.7): 100 nM; IC50 (hNav1.5; Use): 11900 nM; IC50 (hNav1.3; Use): 110 nM
CCC[C@@H]1NC(=O)CNC(=O)[C@H](CC(C)C)NC(=O)[C@@H](NC(=O)[C@@H](N)CC(=O)O)CSSC[C@@H]2NC(=O)[C@@H]3CSSC[C@@H](C(=O)N[C@@H](CCCCN)C(=O)N[C@@H](Cc4ccc(O)cc4)C(=O)N[C@H](C(=O)N[C@@H](Cc4ccccc4)C(N)=O)C(C)C)NC(=O)[C@H](Cc4c[nH]c5ccccc45)NC(=O)[C@H](CCCCN)NC(=O)[C@H](Cc4cnc[nH]4)NC(=O)[C@H]([C@@H](C)O)NC(=O)[C@H](CCCNC(=N)N)NC(=O)[C@H](CO)NC(=O)[C@H](CSSC[C@H](NC(=O)[C@H](CCCCN)NC(=O)[C@H](CCCNC(=N)N)NC(=O)[C@H](CCSC)NC1=O)C(=O)N[C@@H]([C@@H](C)CC)C(=O)N1CCC[C@H]1C(=O)N[C@@H](CC(=O)O)C(=O)N[C@@H](CC(N)=O)C(=O)N[C@@H](CC(=O)O)C(=O)N[C@@H](CCCCN)C(=O)N3)NC(=O)[C@H](C(C)C)NC(=O)[C@H](CC(C)C)NC(=O)[C@H](CC(N)=O)NC(=O)[C@@H]1CCCN1C(=O)[C@H](CCCNC(=N)N)NC2=O [compound 650]	–	–	–	IC50 (hNav1.7): 200 nM; IC50 (hNav1.5; use-dependent protocol, hNav1.5): > 5000 nM; IC50 (hNav1.3; use-dependent protocol, hNav1.3): 570 nM
CC[C@H](C)[C@@H]1NC(=O)[C@@H]2CSSC[C@@H]3NC(=O)[C@H](C(C)C)NC(=O)[C@H](CC(C)C)NC(=O)[C@H](CC(N)=O)NC(=O)[C@@H]4CCCN4C(=O)[C@H](CCCNC(=N)N)NC(=O)[C@H](CSSC[C@H](NC(=O)[C@@H](N)CC(=O)O)C(=O)N[C@@H](CC(C)C)C(=O)NCC(=O)N[C@@H](C)C(=O)N[C@@H](Cc4ccccc4)C(=O)N[C@@H](CCCNC(=N)N)C(=O)N[C@@H](CCCCN)C(=O)N2)NC(=O)[C@H](CSSC[C@@H](C(=O)N[C@@H](CCCCN)C(=O)N[C@@H](Cc2ccc(O)cc2)C(=O)N[C@H](C(=O)N[C@@H](Cc2ccccc2)C(=O)O)C(C)C)NC(=O)[C@H](Cc2c[nH]c4ccccc24)NC(=O)[C@H](CCCNC(=N)N)NC(=O)[C@H](Cc2c[nH]cn2)NC(=O)[C@H]([C@@H](C)O)NC(=O)[C@H](CCCNC(=N)N)NC(=O)[C@H](CO)NC3=O)NC(=O)[C@H](CCCCN)NC(=O)[C@H](CC(=O)O)NC(=O)[C@H](CCSC)NC(=O)[C@H](CC(=O)O)NC(=O)[C@@H]2CCCN2C1=O [compound 845]	4700	> 5000	800	–
CC[C@H](C)[C@@H]1NC(=O)[C@@H]2CSSC[C@@H]3NC(=O)[C@H](C(C)C)NC(=O)[C@H](CC(C)C)NC(=O)[C@H](CC(N)=O)NC(=O)[C@@H]4CCCN4C(=O)[C@H](CCCNC(=N)N)NC(=O)[C@H](CSSC[C@H](NC(=O)[C@@H](N)CC(=O)O)C(=O)N[C@@H](CC(C)C)C(=O)NCC(=O)N[C@@H](C)C(=O)N[C@@H](CC(C)C)C(=O)N[C@@H](CCCNC(=N)N)C(=O)N[C@@H](CCCCN)C(=O)N2)NC(=O)[C@H](CSSC[C@@H](C(=O)N[C@@H](CCCCN)C(=O)N[C@@H](Cc2ccc(O)cc2)C(=O)N[C@H](C(=O)N[C@@H](Cc2ccccc2)C(=O)N[C@@H](Cc2ccccc2)C(=O)O)C(C)C)NC(=O)[C@H](Cc2c[nH]c4ccccc24)NC(=O)[C@H](CCCNC(=N)N)NC(=O)[C@H](Cc2c[nH]cn2)NC(=O)[C@H]([C@@H](C)O)NC(=O)[C@H](CCCNC(=N)N)NC(=O)[C@H](CO)NC3=O)NC(=O)[C@H](CCCCN)NC(=O)[C@H](CC(=O)O)NC(=O)[C@H](CC(N)=O)NC(=O)[C@H](CC(=O)O)NC(=O)[C@@H]2CCCN2C1=O [compound 818] (H-DCLGALRKCIPDNDKCCRPNLVCSRTHRWCKYVFF-OH; disulfide 2-17, 9-23, 16-30)	2300	> 5000	800	–
CC[C@H](C)[C@@H]1NC(=O)[C@@H]2CSSC[C@@H]3NC(=O)[C@H](C(C)C)NC(=O)[C@H](CC(C)C)NC(=O)[C@H](Cc4c[nH]c5ccccc45)NC(=O)[C@@H]4CCCN4C(=O)[C@H](CCCNC(=N)N)NC(=O)[C@H](CSSC[C@H](NC(=O)[C@@H](N)CC(=O)O)C(=O)N[C@@H](CC(C)C)C(=O)NCC(=O)N[C@@H](C)C(=O)N[C@@H](CCSC)C(=O)N[C@@H](CCCNC(=N)N)C(=O)N[C@@H](CCCCN)C(=O)N2)NC(=O)[C@H](CSSC[C@@H](C(=O)N[C@@H](CCCCN)C(=O)N[C@@H](Cc2ccc(O)cc2)C(=O)N[C@H](C(=O)N[C@@H](Cc2ccccc2)C(N)=O)C(C)C)NC(=O)[C@H](Cc2c[nH]c4ccccc24)NC(=O)[C@H](CCCCN)NC(=O)[C@H](Cc2c[nH]cn2)NC(=O)[C@H]([C@@H](C)O)NC(=O)[C@H](CCCNC(=N)N)NC(=O)[C@H](CO)NC3=O)NC(=O)[C@H](CCCCN)NC(=O)[C@H](CC(=O)O)NC(=O)[C@H](CC(N)=O)NC(=O)[C@H](CC(=O)O)NC(=O)[C@@H]2CCCN2C1=O [compound 422] (H-DCLGAMRKCIPDNDKCCRPWLVCSRTHKWCKYVF-NH2; disulfide 2-17, 9-23, 16-30)	280	> 5000	390	–
CC[C@H](C)[C@@H]1NC(=O)[C@@H](NC(=O)[C@H](CCCCN)NC(=O)[C@H](CCCNC(=N)N)NC(=O)[C@H](CCSC)NC(=O)[C@H](Cc2ccccc2)NC(=O)CNC(=O)[C@H](CC(C)C)NC(=O)[C@H](C)NC(=O)[C@@H](N)CC(=O)O)CSSC[C@@H]2NC(=O)[C@H](C(C)C)NC(=O)[C@H](CC(C)C)NC(=O)[C@H](CC(N)=O)NC(=O)[C@@H]3CCCN3C(=O)[C@H](CCCNC(=N)N)NC(=O)[C@H](C)NC(=O)[C@H](CSSC[C@@H](C(=O)N[C@@H](CCCCN)C(=O)N[C@@H](Cc3ccc(O)cc3)C(=O)N[C@H](C(=O)N[C@@H](Cc3ccccc3)C(N)=O)C(C)C)NC(=O)[C@H](Cc3c[nH]c4ccccc34)NC(=O)[C@H](CCCCN)NC(=O)[C@H](Cc3c[nH]cn3)NC(=O)[C@H]([C@@H](C)O)NC(=O)[C@H](CCCNC(=N)N)NC(=O)[C@H](CO)NC2=O)NC(=O)[C@H](CCCCN)NC(=O)[C@H](CC(=O)O)NC(=O)[C@H](CC(N)=O)NC(=O)[C@H](CC(=O)O)NC(=O)[C@@H]2CCCN2C1=O [compound 140] (H-DALGFMRKCIPDNDKCARPNLVCSRTHKWCKYVF-NH2; disulfide 9-23, 16-30)	2450	18900	790	–
